Consider six compounds from the kinase profiling compilation of Christmann-Franck et al. (2016).

Experiment [1] has as its target PDGFRB (human) (UniProt P09619). Kind of experiment: SelectScreen, TR FRET. The following applies: compound 1.0 µM.
Experiment [2] has as its target PDGFRA (human) (UniProt P16234). Kind of experiment: SelectScreen, TR FRET. The note with it: compound 1.0 µM.
The target in experiment [3] is CHEK2 (human) (UniProt O96017). Description: SelectScreen, TR FRET. The note with it: compound 1.0 µM.
Experiment [4] concerns the target AKT1 (human) (UniProt P31749). Kind of experiment: SelectScreen, TR FRET. The following applies: compound 1.0 µM.
Experiment [5] deals with EPHA1 (human) (UniProt P21709). Kind of experiment: SelectScreen, TR FRET. The following applies: compound 1.0 µM.
Experiment [6] has as its target AURKA (human) (UniProt O14965). Kind of experiment: SelectScreen, TR FRET. The following applies: compound 1.0 µM.
The target of experiment [7] is FLT4 (human) (UniProt P35916). Description: SelectScreen, TR FRET. The note with it: compound 1.0 µM.
Chain of FLT4 (human) (P35916 whole entry, looked up): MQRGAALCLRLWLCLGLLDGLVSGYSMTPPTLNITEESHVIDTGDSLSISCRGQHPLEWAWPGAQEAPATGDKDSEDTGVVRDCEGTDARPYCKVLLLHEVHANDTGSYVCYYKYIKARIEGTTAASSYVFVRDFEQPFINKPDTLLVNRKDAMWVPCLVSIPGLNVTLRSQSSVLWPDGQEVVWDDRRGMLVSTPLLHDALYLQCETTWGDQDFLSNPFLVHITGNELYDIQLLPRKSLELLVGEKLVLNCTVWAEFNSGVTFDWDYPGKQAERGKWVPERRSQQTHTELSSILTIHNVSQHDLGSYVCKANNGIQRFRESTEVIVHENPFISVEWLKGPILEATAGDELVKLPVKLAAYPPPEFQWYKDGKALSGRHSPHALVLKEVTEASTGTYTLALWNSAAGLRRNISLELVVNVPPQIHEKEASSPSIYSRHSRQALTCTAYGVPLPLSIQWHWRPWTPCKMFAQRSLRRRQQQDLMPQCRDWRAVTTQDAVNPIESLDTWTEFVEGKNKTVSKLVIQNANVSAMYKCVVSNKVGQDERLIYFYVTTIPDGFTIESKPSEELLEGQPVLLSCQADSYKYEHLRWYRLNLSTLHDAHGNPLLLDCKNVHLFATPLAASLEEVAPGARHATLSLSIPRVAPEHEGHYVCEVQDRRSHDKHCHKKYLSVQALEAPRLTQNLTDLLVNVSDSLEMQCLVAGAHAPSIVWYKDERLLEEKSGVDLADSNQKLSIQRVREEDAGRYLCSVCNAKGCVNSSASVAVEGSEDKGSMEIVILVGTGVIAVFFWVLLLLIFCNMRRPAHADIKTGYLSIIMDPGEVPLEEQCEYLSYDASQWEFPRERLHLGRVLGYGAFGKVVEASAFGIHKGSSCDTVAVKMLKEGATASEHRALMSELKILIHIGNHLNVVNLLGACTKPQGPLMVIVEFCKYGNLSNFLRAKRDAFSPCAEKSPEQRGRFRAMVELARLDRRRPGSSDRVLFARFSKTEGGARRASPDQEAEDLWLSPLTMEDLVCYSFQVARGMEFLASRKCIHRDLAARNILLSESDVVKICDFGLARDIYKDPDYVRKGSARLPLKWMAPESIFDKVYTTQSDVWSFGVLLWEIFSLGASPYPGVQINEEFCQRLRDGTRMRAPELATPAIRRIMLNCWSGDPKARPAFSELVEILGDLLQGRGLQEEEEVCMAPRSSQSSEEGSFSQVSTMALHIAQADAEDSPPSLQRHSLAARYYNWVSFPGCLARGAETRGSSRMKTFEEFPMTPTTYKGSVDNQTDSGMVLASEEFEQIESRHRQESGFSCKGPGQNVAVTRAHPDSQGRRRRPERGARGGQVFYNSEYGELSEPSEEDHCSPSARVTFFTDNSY
Experiment [8] concerns the target KDR (human) (UniProt P35968). Kind of experiment: SelectScreen, TR FRET. The note with it: compound 1.0 µM.
Experiment [9] concerns the target TAOK1 (human) (UniProt Q7L7X3). Kind of experiment: KINOMEscan competition binding. The note with it: compound 1.0 µM.
In experiment [10] the target is BMPR1A (human) (UniProt P36894). Kind of experiment: KINOMEscan competition binding. The following applies: compound 1.0 µM.
The target of experiment [11] is PDPK1 (human) (UniProt O15530). Kind of experiment: SelectScreen, TR FRET. The following applies: compound 1.0 µM.
Chain of PDPK1 (human) (O15530 whole entry, looked up): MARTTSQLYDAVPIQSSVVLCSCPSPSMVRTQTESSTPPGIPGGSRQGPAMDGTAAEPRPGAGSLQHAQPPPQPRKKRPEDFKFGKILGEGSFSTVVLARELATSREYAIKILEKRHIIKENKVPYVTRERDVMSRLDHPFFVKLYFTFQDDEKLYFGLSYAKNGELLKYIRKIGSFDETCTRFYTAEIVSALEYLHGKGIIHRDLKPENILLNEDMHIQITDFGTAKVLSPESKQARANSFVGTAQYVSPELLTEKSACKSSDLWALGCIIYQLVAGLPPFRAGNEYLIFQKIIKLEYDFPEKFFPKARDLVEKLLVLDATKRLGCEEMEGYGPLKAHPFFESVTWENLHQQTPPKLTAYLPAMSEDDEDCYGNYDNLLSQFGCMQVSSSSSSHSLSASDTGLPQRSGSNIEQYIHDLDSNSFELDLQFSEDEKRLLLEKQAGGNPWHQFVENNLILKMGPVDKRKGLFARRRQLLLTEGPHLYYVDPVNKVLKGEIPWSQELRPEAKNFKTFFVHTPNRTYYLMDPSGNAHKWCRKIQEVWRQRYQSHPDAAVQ
For experiment [12], the target named is TAOK2 (human) (UniProt Q9UL54). Description: KINOMEscan competition binding. The note with it: compound 10.0 µM.
Experiment [13] concerns the target MYLK3 (human) (UniProt Q32MK0). Description: KINOMEscan competition binding.
The target in experiment [14] is CAMK1G (human) (UniProt Q96NX5). Kind of experiment: KINOMEscan competition binding. The note with it: compound 10.0 µM.
Experiment [15] deals with TNK2 (human) (UniProt Q07912). Description: KINOMEscan competition binding.
Chain of TNK2 (human) (Q07912 whole entry, looked up): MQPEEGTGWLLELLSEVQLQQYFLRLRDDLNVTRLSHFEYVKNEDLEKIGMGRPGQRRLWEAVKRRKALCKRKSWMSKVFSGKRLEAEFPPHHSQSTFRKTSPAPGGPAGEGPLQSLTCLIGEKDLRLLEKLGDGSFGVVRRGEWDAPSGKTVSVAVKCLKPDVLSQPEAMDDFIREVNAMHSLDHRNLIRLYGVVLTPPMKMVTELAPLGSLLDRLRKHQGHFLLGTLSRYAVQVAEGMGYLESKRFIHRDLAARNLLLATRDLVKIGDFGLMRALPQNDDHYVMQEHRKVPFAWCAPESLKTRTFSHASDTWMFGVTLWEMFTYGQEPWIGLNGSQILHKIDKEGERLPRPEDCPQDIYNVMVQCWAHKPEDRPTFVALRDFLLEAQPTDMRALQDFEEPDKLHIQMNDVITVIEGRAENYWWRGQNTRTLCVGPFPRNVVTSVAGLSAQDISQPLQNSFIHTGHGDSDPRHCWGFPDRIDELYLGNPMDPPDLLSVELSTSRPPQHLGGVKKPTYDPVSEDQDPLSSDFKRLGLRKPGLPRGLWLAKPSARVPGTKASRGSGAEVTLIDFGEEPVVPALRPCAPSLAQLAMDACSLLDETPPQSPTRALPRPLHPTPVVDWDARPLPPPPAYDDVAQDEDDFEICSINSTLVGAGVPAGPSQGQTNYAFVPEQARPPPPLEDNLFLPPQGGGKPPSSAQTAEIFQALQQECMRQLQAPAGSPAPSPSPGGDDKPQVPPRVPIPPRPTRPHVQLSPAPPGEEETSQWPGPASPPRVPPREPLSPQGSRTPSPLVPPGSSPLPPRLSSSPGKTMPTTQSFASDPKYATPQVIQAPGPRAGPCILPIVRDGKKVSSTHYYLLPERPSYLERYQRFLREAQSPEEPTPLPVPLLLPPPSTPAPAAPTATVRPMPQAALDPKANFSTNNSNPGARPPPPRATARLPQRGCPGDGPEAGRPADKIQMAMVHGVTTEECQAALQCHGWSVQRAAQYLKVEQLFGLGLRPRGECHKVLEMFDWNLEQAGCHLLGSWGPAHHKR
The target in experiment [16] is CRK2 (P.falciparum) (UniProt P61075). Description: KINOMEscan competition binding. The note with it: compound 10.0 µM.
Experiment [17] addresses MAP3K12 (human) (UniProt Q12852). Kind of experiment: KINOMEscan competition binding.
In experiment [18] the test system is CPK1 (P.falciparum). Kind of experiment: KINOMEscan competition binding. The following applies: compound 10.0 µM.
Experiment [19] deals with PRKACA (human) (UniProt P17612). Kind of experiment: KINOMEscan competition binding.
The target in experiment [20] is CSNK1A1L (human) (UniProt Q8N752). Description: KINOMEscan competition binding.
For experiment [21], the target named is SBK1 (human) (UniProt Q52WX2). Kind of experiment: KINOMEscan competition binding.
Chain of SBK1 (human) (Q52WX2 whole entry, looked up): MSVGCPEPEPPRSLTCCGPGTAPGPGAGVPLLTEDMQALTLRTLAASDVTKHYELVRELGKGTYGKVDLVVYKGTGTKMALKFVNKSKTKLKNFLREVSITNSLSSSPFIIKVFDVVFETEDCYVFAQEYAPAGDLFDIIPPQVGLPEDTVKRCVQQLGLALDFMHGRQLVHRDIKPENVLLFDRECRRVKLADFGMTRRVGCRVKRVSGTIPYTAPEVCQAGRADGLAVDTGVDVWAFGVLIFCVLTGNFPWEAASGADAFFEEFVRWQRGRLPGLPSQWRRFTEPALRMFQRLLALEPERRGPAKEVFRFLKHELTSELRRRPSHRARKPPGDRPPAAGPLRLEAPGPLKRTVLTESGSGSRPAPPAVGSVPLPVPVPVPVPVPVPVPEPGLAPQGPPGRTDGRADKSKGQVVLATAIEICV
Experiment [22] concerns the target MAPK9 (human) (UniProt P45984).
Experiment [23] deals with PRKACA (human) (UniProt P17612).
The target of experiment [24] is PDPK1 (human) (UniProt O15530).

Chain of MAP3K12 (human) (Q12852 whole entry, looked up): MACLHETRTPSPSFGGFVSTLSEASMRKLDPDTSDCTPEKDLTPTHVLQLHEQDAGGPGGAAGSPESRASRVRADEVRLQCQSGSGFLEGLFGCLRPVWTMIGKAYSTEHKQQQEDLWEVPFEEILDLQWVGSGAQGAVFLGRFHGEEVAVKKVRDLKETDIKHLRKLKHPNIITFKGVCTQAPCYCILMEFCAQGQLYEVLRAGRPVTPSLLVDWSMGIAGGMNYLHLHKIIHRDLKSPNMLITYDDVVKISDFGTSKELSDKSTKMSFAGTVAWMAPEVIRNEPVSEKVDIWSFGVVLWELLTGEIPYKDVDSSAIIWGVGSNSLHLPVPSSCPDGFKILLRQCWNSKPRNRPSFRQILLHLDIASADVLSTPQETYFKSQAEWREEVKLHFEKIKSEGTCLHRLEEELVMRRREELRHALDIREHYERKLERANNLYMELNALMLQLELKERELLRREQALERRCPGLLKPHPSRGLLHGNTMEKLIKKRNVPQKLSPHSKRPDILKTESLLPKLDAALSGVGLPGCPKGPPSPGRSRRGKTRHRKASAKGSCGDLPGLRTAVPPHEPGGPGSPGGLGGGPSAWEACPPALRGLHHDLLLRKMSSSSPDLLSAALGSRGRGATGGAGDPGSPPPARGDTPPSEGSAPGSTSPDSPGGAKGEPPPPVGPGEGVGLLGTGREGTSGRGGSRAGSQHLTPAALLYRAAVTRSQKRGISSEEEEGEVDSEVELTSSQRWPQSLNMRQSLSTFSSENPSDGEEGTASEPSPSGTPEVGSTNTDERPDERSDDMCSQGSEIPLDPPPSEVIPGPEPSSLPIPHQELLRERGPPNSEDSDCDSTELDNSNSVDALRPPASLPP
Chain of MYLK3 (human) (Q32MK0 whole entry, looked up): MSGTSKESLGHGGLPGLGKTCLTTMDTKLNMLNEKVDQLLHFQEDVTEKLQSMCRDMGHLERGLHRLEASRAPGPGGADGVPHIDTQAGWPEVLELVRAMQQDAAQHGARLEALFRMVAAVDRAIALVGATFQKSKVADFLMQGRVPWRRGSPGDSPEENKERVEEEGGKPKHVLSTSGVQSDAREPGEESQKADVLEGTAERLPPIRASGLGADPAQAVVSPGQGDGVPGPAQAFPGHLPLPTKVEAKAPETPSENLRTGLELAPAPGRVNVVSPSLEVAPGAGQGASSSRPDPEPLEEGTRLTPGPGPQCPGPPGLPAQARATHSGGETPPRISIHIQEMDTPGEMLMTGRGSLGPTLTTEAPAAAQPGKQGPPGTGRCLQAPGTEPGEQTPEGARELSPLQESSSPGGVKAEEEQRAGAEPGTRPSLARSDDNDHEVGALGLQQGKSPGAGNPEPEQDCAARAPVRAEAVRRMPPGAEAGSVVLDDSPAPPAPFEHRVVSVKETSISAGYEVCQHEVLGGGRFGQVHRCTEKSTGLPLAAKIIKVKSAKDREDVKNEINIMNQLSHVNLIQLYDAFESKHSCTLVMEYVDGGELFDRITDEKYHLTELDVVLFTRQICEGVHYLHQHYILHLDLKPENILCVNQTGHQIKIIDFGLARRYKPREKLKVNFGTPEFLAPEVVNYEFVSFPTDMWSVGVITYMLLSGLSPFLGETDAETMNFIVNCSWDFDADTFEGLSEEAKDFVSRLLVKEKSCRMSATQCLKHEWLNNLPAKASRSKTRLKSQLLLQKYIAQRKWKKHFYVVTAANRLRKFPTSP

In the case of `CC(C)(C)c1cc(NC(=O)NCc2ccc(-c3cc(NC(=O)c4ccc(OCCN5CCOCC5)cc4)[nH]n3)cc2)no1`, the inhibition in [1] is -97%; in experiment [2] it was -85%; in experiment [3] it was -10%; in experiment [4], -17%; in experiment [5], -20%; in experiment [6], -48%. Besides, the results for the inhibition in [7] and in [8] were -86% and -99%, respectively.

Take `Nc1ccccc1Nc1ccc2c(c1)CCc1ccccc1C2=O`: the kinase still bound, per cent of control in experiment [9] and in experiment [10] was 100% in each case.

In experiment [11], `CC(C)(O)c1ccc(-c2cnc3c(n2)N(CC2CCOCC2)CC(=O)N3)cn1` showed a residual activity of 100%.

Turning to `O=C(Nc1cccnc1)c1cc(-c2ccnc(F)c2)ccc1OCc1ccccc1`, the kinase still bound, per cent of control in experiment [12], in [13] (compound 10.0 µM), in experiment [14], in [15] (compound 10.0 µM), in experiment [16] and in experiment [18] was 100% in each case. The compound further had a residual activity in experiment [17] (compound 10.0 µM) of 100%.

As to `CO[C@@H]1[C@H](N(C)C(=O)c2ccccc2)C[C@H]2O[C@]1(C)n1c3ccccc3c3c4c(c5c6ccccc6n2c5c31)C(=O)NC4O` (some centres not stated), the equilibrium dissociation constant (Kd) in experiment [13] was greater than 10 µM; in [19], greater than 10 µM; in [15] it was 0.015 µM; in experiment [20], greater than 10 µM; in experiment [21], greater than 10 µM; in experiment [17], greater than 10 µM.

Consider `Cc1c(C(=O)N2CCOc3ccc(-c4ccc(N)nc4)cc3C2)ccc(S(C)(=O)=O)c1F`, for which the IC50 in experiment [22], in experiment [23] and in experiment [24] was greater than 10 µM in each case.
